What was measured:
Drosophila TRPA1 = target: T1, Drosophila TRPA1 (Drosophila melanogaster, UniProt Q7Z020); assay: Current-voltage recordings in dTRPA1-expressing HEK293 cells; type: cell-based; settings: desflurane at concentrations up to 3 mM
T1 construct: expressed in transfected cells; host or cells: HEK293
T1 sequence (Q7Z020 1-1197): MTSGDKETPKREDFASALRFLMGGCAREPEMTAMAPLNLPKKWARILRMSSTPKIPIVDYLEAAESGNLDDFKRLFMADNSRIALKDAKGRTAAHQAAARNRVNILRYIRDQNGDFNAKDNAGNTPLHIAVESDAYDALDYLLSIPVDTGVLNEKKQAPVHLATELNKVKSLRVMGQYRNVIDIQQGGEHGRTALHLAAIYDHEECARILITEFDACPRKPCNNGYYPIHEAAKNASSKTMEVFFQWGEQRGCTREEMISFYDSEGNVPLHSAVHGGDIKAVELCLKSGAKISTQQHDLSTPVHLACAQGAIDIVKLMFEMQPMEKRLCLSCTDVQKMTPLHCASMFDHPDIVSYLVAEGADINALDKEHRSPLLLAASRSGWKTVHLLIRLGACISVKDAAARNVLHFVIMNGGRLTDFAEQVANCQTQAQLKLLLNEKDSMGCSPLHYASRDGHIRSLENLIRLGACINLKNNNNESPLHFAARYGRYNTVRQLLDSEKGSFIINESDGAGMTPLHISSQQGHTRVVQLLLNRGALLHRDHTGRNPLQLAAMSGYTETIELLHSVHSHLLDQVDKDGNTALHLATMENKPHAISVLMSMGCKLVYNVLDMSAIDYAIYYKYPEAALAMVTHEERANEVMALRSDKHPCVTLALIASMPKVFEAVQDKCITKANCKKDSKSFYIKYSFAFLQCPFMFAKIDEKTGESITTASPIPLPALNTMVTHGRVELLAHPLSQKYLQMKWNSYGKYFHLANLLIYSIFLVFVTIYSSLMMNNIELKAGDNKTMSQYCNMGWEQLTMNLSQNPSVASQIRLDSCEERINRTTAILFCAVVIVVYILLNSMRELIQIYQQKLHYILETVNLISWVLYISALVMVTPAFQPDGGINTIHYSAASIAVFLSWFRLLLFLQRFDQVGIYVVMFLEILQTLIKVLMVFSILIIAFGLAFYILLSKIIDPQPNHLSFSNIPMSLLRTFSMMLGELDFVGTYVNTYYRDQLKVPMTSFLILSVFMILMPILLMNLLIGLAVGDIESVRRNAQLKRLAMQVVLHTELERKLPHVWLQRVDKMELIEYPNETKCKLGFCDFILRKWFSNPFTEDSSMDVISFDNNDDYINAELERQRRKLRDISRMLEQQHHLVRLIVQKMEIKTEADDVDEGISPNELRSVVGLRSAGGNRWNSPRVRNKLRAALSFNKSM
Procedure: A genetic approach was used to identify critical sites in TRPA1 and TRPV1 required for activation by general anesthetics. Drosophila TRPA1 is insensitive to desflurane (at concentrations up to 3 mM). […] Note that dTRPA1 is insensitive to AITC. Next, several chimeric TRP proteins containing dTRPA1 (unresponsive to desflurane) and mTRPA1 were tested. For the dTRPA1-mN chimera, the mouse 720 amino acid N-terminus was exchanged for the drosophila N-terminus. The N-terminal domain contains essential binding sites for AITC, and therefore studying this chimera tests an important role for the N-terminus in anesthetic-sensing. […] The mTRPA1-dTM5 construct was then studied, which is the mouse protein containing the fifth transmembrane domain of the drosophila protein.

[1] = test system: DRG neurons from TRPA1-null mice; assay: Ca2+ imaging in DRG neurons from TRPA1-null mice; type: cell-based, mouse; settings: desflurane n=125, propofol n=120
Procedure: Ca^2+ Imaging. Neurons were loaded with 1 μM Fluo4-AM (Molecular Probes) for 20 min and washed for a further 10-20 min before recording. The dye was excited at 488±15 nm. Emitted fluorescence was filtered with a 535±25 nm bandpass filter, captured by a SPOT RT digital camera (Diagnostic Instruments) and read into a computer. Analysis was performed offline by using Simple PCI software (Compix Inc.).

`FC(F)OC(F)C(F)(F)F` (centres unmarked) [desflurane] was tested, and the “Sensitivity of Drosophila TRPA1” value (Drosophila TRPA1) was “insensitive” and the “Ca2+ responses in neurons from TRPA1-null mice” value [1] was “no responses”.
